Data taken from US11492335B2, “Aryl or heteroaryl triazolone derivatives or salts thereof, or pharmaceutical compositions comprising the same” (YUHAN CORPORATION, priority 2018, dated 2022).
Counter-ions that a name gives are not always drawn. Like-named read-outs stand apart in the source and are kept apart here.

Experiments:
Assay type in all cases: biochemical
[1] = target: T1, recombinant human DAO (diamine oxidase) (Homo sapiens, UniProt P19801); experiment: Activity on recombinant human DAO, Amplex Red method, 1 mM putrescine substrate; conditions: recombinant human DAO, read-out: Inhibitory Activity (IC50, nM) DAO
T1 construct: purchased R&D systems
T1 sequence (P19801 20-751): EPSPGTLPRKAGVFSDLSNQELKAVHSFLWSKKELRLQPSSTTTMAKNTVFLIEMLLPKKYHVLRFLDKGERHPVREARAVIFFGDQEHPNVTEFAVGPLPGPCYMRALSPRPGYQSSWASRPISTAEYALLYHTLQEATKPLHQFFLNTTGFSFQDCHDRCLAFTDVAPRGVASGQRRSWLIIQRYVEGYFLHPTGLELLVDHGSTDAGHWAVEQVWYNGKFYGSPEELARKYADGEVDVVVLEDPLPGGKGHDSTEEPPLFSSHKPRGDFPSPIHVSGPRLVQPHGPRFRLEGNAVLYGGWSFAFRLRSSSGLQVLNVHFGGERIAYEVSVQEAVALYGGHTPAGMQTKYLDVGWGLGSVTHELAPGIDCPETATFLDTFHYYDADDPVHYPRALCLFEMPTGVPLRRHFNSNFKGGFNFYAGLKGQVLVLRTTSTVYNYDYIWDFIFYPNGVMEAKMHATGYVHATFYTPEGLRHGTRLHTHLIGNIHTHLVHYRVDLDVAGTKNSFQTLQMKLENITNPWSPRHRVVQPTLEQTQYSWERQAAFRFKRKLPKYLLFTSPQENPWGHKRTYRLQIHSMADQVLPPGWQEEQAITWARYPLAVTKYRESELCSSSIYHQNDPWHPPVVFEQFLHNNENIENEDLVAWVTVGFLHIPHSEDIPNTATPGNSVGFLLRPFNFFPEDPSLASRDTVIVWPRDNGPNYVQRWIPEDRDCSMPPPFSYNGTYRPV
Procedure, shortened: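 Inhibition of recombinant human DAO (diamine oxidase, R&D systems) was assessed with the Amplex Red Hydrogen Peroxide Assay Kit. Hydrogen peroxide produced from 1 mM putrescine was detected through an HRP-coupled reaction that converts Amplex Red into fluorescent resorufin, read at 544 nm excitation and 590 nm emission. IC50 values came from four-parameter logistic fits in GraphPad Prism.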

[2] = target: T2, recombinant human VAP-1 (Homo sapiens, UniProt Q16853); experiment: Activity on recombinant human VAP-1, Amplex Red HRP-coupled hydrogen peroxide assay, benzylamine substrate; conditions: recombinant human VAP-1, benzylamine substrate, read-out: Inhibitory Activity (IC50, nM) human VAP-1
T2 construct: purchased R&D systems
T2 sequence (Q16853 1-763): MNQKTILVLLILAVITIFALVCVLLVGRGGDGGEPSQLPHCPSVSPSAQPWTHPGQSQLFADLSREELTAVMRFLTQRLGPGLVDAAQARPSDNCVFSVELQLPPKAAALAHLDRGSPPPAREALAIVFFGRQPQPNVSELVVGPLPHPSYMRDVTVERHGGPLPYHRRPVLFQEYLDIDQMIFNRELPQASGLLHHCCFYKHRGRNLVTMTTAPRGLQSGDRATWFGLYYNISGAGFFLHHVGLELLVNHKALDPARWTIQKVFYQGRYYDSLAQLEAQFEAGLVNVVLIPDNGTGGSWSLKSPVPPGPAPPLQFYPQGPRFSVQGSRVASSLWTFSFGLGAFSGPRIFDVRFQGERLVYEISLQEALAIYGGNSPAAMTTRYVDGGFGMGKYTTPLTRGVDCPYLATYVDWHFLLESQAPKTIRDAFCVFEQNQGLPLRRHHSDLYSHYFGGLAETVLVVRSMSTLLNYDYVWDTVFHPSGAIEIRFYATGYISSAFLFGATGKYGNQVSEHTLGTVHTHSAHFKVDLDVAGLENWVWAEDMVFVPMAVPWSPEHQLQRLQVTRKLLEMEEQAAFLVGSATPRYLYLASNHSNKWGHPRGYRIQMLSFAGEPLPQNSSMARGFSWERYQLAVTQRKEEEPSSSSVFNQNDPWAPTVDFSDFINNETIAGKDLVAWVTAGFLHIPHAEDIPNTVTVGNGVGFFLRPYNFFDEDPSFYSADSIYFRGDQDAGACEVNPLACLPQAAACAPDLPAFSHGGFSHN
Procedure, shortened: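 Enzyme in 50 mM sodium phosphate (pH 7.4) is exposed to test compound for 30 min at 37 °C. Benzylamine (1 mM) with HRP and Amplex Red then starts the reaction, and the fluorescence rate, relative to a DMSO-only control, gives IC50.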

[3] = target: T3, recombinant human MAO-B (monoamine oxidase-B) (Homo sapiens, UniProt P27338); experiment: Activity on recombinant human MAO-B, Amplex Red method, 1 mM benzylamine substrate; conditions: read-out: Inhibitory Activity (IC50, nM) MAO-B
T3 construct: purchased Sigma-Aldrich
T3 sequence (P27338 1-520): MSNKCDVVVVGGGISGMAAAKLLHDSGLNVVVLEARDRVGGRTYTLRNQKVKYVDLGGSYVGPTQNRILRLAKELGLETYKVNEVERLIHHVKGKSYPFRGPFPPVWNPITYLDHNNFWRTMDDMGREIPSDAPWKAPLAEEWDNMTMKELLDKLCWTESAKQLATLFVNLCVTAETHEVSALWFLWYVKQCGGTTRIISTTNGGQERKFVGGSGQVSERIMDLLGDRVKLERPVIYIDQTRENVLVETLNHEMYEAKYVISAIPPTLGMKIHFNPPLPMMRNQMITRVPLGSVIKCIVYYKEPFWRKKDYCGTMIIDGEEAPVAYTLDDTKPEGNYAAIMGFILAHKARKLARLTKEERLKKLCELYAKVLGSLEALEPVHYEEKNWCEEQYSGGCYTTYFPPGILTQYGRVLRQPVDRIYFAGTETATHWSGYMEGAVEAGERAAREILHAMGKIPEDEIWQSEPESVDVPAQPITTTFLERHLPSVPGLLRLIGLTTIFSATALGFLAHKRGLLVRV
Procedure, shortened: (§1)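 Enzyme in pH 7.4 phosphate buffer; 30 min, 37° C with compound (DMSO <1%); start with 200 uM Amplex Red + 1 U/mL HRP + tyramine 0.5 mM (MAO-A) or benzylamine 1 mM (MAO-B); kinetic read ex 544/em 590, 1-2 h; % rate decrease vs DMSO control → IC50, 4-parameter fit.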

[4] = target: T4, recombinant human MAO-A (monoamine oxidase-A) (Homo sapiens, UniProt P21397); experiment: Activity on recombinant human MAO-A, Amplex Red method, 0.5 mM tyramine substrate; conditions: read-out: Inhibitory Activity (IC50, nM) MAO-A
T4 construct: purchased Sigma-Aldrich
T4 sequence (P21397 1-527): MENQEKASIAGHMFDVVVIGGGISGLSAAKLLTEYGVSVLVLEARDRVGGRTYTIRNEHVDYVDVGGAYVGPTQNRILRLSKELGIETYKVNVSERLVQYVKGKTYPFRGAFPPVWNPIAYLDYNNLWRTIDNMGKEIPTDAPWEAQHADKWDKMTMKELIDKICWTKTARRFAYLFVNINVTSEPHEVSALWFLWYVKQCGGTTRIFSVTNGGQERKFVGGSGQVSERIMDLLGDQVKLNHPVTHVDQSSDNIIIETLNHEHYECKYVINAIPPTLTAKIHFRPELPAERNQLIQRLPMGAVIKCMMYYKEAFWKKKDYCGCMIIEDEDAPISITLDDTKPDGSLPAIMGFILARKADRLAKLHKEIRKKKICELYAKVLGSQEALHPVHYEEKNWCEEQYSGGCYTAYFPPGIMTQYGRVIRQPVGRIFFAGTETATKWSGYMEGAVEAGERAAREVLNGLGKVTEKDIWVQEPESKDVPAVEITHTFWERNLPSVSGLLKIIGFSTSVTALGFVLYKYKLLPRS
Procedure, shortened: as §1

[5] = 1 mM putrescine, * = between 10 and 100 nM, ** = between 300 and 1000 nM

| SMILES | IC50 [1, 5] | IC50 ([2]; 30 min preincubation at 37° C.) | IC50 ([3]; 1 mM benzylamine) | IC50 ([4]; 0.5 mM tyramine) | IC50 ([1]; 1 mM putrescine substrate) | IC50 [2] | IC50 ([3]; 1 mM benzylamine substrate) | IC50 ([4]; 0.5 mM tyramine substrate) |
| --- | --- | --- | --- | --- | --- | --- | --- | --- |
| NC/C(=C\F)Cn1ncn(-c2cccc(-c3ccc(N4CCOCC4)nc3)c2)c1=O [Example 86, 2-[(2E)-2-(aminomethyl)-3-fluoroprop-2-en-1-yl]-4-{3-[6-(morpholin-4-yl)pyridin-3-yl]phenyl}-2,4-dihydro-3H-1,2,4-triazol-3-one hydrochloride] | < 100 nM | 0.62 nM | 1230 nM | > 100000 nM |  |  |  |  |
| CC(=O)Nc1ccc(-c2cc(C)c(-n3cnn(C/C(=C/F)CN)c3=O)cn2)cc1 [Example 120, N-[4-(5-{1-[(2E)-2-(aminomethyl)-3-fluoroprop-2-en-1-yl]-5-oxo-1,5-dihydro-4H-1,2,4-triazol-4-yl}-4-methylpyridin-2-yl)phenyl]acetamide] | 110 nM | 1.4 nM | > 10000 nM | > 100000 nM |  |  |  |  |
| NC/C(=C\F)Cn1ncn(-c2cccc(-c3ccc(N4CCCC4)cc3)n2)c1=O [Example 183, 2-[(2E)-2-(aminomethyl)-3-fluoroprop-2-en-1-yl]-4-{6-[4-(pyrrolidin-1-yl)phenyl]pyridin-2-yl}-2,4-dihydro-3H-1,2,4-triazol-3-one hydrochloride] |  |  |  |  | 350 nM | 2.5 nM | > 10000 nM | 13000 nM |
| NC/C(=C\F)Cn1ncn(-c2cccc(C#Cc3cccnc3)c2)c1=O [Example 243, 2-[(2E)-2-(aminomethyl)-3-fluoroprop-2-en-1-yl]-4-[3-(pyridin-3-ylethynyl)phenyl]-2,4-dihydro-3H-1,2,4-triazol-3-one hydrochloride] |  |  |  |  | 18 nM | 0.6 nM | 940 nM | > 100000 nM |
| CC(=O)Nc1cc(-c2cccc(-n3cnn(C/C(=C\F)CN)c3=O)c2)ccn1 [Example 80, N-[4-(3-{1-[(2Z)-2-(aminomethyl)-3-fluoroprop-2-en-1-yl]-5-oxo-1,5-dihydro-4H-1,2,4-triazol-4-yl}phenyl)pyridin-2-yl]acetamide hydrochloride] | 12 nM | 1.1 nM | > 10000 nM | > 100000 nM |  |  |  |  |
| CN1CNc2cc(/C=C/c3cccc(-n4cnn(C/C(=C/F)CN)c4=O)n3)cnc21 [Example 240, 2-[(E)-2-(aminomethyl)-3-fluoro-allyl]-4-[6-[(E)-2-(3-methyl-1,2-dihydroimidazo[4,5-b]pyridin-6-yl)vinyl]-2-pyridyl]-1,2,4-triazol-3-one hydrochloride] |  |  |  |  | 4 nM | 1 nM | > 10000 nM | > 100000 nM |
| NC/C(=C/F)Cn1ncn(-c2ncc(-c3ccc4nonc4c3)s2)c1=O [Example 234, 2-[(2Z)-2-(aminomethyl)-3-fluoroprop-2-en-1-yl]-4-[5-(2,1,3-benzooxadiazol-5-yl)-1,3-thiazol-2-yl]-2,4-dihydro-3H-1,2,4-triazol-3-one hydrochloride] |  |  |  |  | < 100 nM | 0.98 nM | 10.1 nM | < 100 nM |
| NC/C(=C\F)Cn1ncn(-c2cccc(-c3ccc(N4CCOCC4)c(F)c3)c2)c1=O [Example 75, 2-[(2E)-2-(aminomethyl)-3-fluoroprop-2-en-1-yl]-4-[3′-fluoro-4′-(morpholin-4-yl)biphenyl-3-yl]-2,4-dihydro-3H-1,2,4-triazol-3-one hydrochloride] | < 100 nM | 0.93 nM | > 10000 nM | > 100000 nM |  |  |  |  |
| NC/C(=C\F)Cn1ncn(-c2cccc(C#Cc3cnc4c(c3)OCCN4)n2)c1=O [Example 252, 2-[(E)-2-(aminomethyl)-3-fluoro-allyl]-4-[6-[2-(3,4-dihydro-2H-pyrido[3,2-b][1,4]oxazin-7-yl)ethynyl]-2-pyridyl]-1,2,4-triazol-3-one] |  |  |  |  | 53 nM | 0.6 nM | > 10000 nM | > 100000 nM |
| NC/C(=C\F)Cn1ncn(-c2cc(-c3ccc4c(c3)OCCO4)ccn2)c1=O [Example 171, 2-[(2E)-2-(aminomethyl)-3-fluoroprop-2-en-1-yl]-4-[4-(2,3-dihydro-1,4-benzodioxin-6-yl)pyridin-2-yl]-2,4-dihydro-3H-1,2,4-triazol-3-one] |  |  |  |  | < 30 nM | 0.84 nM | 1540 nM | > 100000 nM |
| CC(=O)Nc1cc(-c2cnc(-n3cnn(C/C(=C/F)CN)c3=O)cn2)ccn1 [Example 220, N-[4-(5-{1-[(2E)-2-(aminomethyl)-3-fluoroprop-2-en-1-yl]-5-oxo-1,5-dihydro-4H-1,2,4-triazol-4-yl}pyrazin-2-yl)pyridin-2-yl]acetamide] |  |  |  |  | < 100 nM | 1.8 nM | 396 nM | > 100000 nM |
